Test results from PMC9250534, “Synthesis and direct assay of large macrocycle diversities by combinatorial late-stage modification at picomole scale” (Nature Communications, 2022).
Numbered stars: 1 amine (or outer) side, 2 acyl side, 3 side chain; on linkers, the order of the positions; unused ones are H or OH. Bridge positions count the residues as written; N and C are the ends. Square brackets hold non-standard residues; d marks the D form. Side chains are listed from the residue outwards. Peptide text beside a SMILES is read from it. * marks the point of attachment. Shikimoyl = O=C(C1=C[C@@H](O)[C@@H](O)[C@H](O)C1)*; Cyclopropanecarbonyl(1-CN) = N#CC1(C(=O)*)CC1; Pyrazinoyl(5-oxo-4H) = O=C(c1c[nH]c(=O)cn1)*; 1,2,3Thiadiazole5CO(4-Me) = Cc1nnsc1C(=O)*; Benzoyl(3-CF3) = O=C(c1cccc(C(F)(F)F)c1)*; Tetrahydropyran4carbonyl = O=C(C1CCOCC1)*; Isoorotoyl = O=C(c1c[nH]c(=O)[nH]c1=O)*; Benzoyl(3,5-F2) = O=C(c1cc(F)cc(F)c1)*; Nicotinoyl(6-OMe) = COc1ccc(C(=O)*)cn1; Indane2carbonyl = O=C(C1Cc2ccccc2C1)*; Acetyl(4-pyridyl) = O=C(Cc1ccncc1)*; Benzoyl(4-OMe) = COc1ccc(C(=O)*)cc1; 2Thenoyl(5-Cl) = O=C(c1ccc(Cl)s1)*; Benzoyl(4-Cl) = O=C(c1ccc(Cl)cc1)*; Cyclohexylacetyl = O=C(CC1CCCCC1)*; Pyrazinecarbonyl = O=C(c1cnccn1)*; Phenoxyacetyl = O=C(COc1ccccc1)*; X10 = O=C(c1cc(-c2ccco2)[nH]n1)*; Pentanoyl(4-Me) = CC(C)CCC(=O)*; X5 = O=C(c1cc2cc(Cl)ccc2[nH]1)*; X14 = O=C(C1(c2ccccc2)CCCCC1)*; X4 = O=C(c1cccc2c1OC(F)(F)O2)*; Cysteamide = C(CS[*:3])N[*:1]; X13 = O=C(c1ccc2[nH]cnc2c1)*; X3 = O=C(Cc1c[nH]c2ccccc12)*; X8 = O=C(c1ccc(=O)[nH]n1)*; X9 = COc1ccc(CC(=O)*)cc1OC; Ethoxyacetyl = CCOCC(=O)*; Isovaleryl = CC(C)CC(=O)*; X7 = CC(C)=CCCC(C)CC(=O)*; MeOSuc = COC(=O)CCC(=O)*; X1 = O=C(/C=C/c1ccccc1)*; 2Furoyl = O=C(c1ccco1)*; Dap = NC[C@H](N)C(=O)O; Inp = O=C(O)C1CCNCC1; Bz = O=C(c1ccccc1)*; Ms = CS(=O)(=O)*; Mpa = O=C(O)CCS

Each molecule was assayed against MDM2 (Homo sapiens, UniProt Q00987) (assay: MDM2 binding screen: displacement of fluorescent p53 peptide probe FP53 (fluorescence polarization)). Details: 10 µM macrocycle concentration; crude acylated macrocycle (scaffold Mpa-AA1-AA2-AA3 x carboxylic acid); p53-based fluorescent peptide, human MDM2.
MDM2, sequence (Q00987 whole entry, the tested form may be a part): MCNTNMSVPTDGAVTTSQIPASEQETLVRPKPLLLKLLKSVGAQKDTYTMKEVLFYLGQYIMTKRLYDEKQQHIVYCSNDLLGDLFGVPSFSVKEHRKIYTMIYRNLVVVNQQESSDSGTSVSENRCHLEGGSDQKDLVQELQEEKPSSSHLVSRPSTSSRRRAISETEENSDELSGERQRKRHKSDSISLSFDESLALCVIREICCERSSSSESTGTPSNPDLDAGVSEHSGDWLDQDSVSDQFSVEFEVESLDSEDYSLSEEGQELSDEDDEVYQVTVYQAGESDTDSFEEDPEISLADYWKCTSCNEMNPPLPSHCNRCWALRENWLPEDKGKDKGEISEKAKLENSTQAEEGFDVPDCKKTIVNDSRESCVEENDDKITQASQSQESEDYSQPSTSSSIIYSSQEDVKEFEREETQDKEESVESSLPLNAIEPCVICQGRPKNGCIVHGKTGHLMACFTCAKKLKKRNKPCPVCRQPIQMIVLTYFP
How it was run: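 Single-point screen: one fluorescence anisotropy reading at 25 °C (485 nm excitation, 535 nm emission) per macrocycle. Crude macrocycle reactions, final 10 µM, were scored for displacing the fluorescent p53 peptide from human MDM2.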

SMILES	fraction fluorescent probe displaced
O=C(NC[C@@H]1NC(=O)[C@@H]2CCCN2C(=O)CCSSCCNC(=O)[C@H](Cc2ccccc2)NC1=O)c1ccc2[nH]cnc2c1 [X-B1-D3-F + A6] ([Mpa]P[Dap](X13)F-Cysteamide; disulfide 1-C)	-0.003922
O=C(NC[C@@H]1NC(=O)[C@@H]2CCCN2C(=O)CCSSCCNC(=O)[C@H](Cc2ccccc2)NC1=O)c1c[nH]c(=O)cn1 [X-B1-D3-F + A9] ([Mpa]P[Dap](Pyrazinoyl(5-oxo-4H))F-Cysteamide; disulfide 1-C)	-0.0026
COc1ccc(C(=O)NC[C@@H]2NC(=O)[C@@H]3CCCN3C(=O)CCSSCCNC(=O)[C@H](Cc3ccccc3)NC2=O)cn1 [X-B1-D3-F + A10] ([Mpa]P[Dap](Nicotinoyl(6-OMe))F-Cysteamide; disulfide 1-C)	0.01535
O=C(NC[C@@H]1NC(=O)[C@@H]2CCCN2C(=O)CCSSCCNC(=O)[C@H](Cc2ccccc2)NC1=O)c1c[nH]c(=O)[nH]c1=O [X-B1-D3-F + A11] ([Mpa]P[Dap](Isoorotoyl)F-Cysteamide; disulfide 1-C)	0.04782
O=C(Cc1c[nH]c2ccccc12)NC[C@@H]1NC(=O)[C@@H]2CCCN2C(=O)CCSSCCNC(=O)[C@H](Cc2ccccc2)NC1=O [X-B1-D3-F + A12] ([Mpa]P[Dap](X3)F-Cysteamide; disulfide 1-C)	0.03497
O=C(COc1ccccc1)NC[C@@H]1NC(=O)[C@@H]2CCCN2C(=O)CCSSCCNC(=O)[C@H](Cc2ccccc2)NC1=O [X-B1-D3-F + A13] ([Mpa]P[Dap](Phenoxyacetyl)F-Cysteamide; disulfide 1-C)	0.1199
O=C(NC[C@@H]1NC(=O)[C@@H]2CCCN2C(=O)CCSSCCNC(=O)[C@H](Cc2ccccc2)NC1=O)c1ccc(Cl)s1 [X-B1-D3-F + A14] ([Mpa]P[Dap](2Thenoyl(5-Cl))F-Cysteamide; disulfide 1-C)	0.08192
Cc1nnsc1C(=O)NC[C@@H]1NC(=O)[C@@H]2CCCN2C(=O)CCSSCCNC(=O)[C@H](Cc2ccccc2)NC1=O [X-B1-D3-F + A15] ([Mpa]P[Dap](1,2,3Thiadiazole5CO(4-Me))F-Cysteamide; disulfide 1-C)	-0.03374
O=C(NC[C@@H]1NC(=O)[C@@H]2CCCN2C(=O)CCSSCCNC(=O)[C@H](Cc2ccccc2)NC1=O)c1cccc(C(F)(F)F)c1 [X-B1-D3-F + A18] ([Mpa]P[Dap](Benzoyl(3-CF3))F-Cysteamide; disulfide 1-C)	0.09317
O=C(NC[C@@H]1NC(=O)[C@@H]2CCCN2C(=O)CCSSCCNC(=O)[C@H](Cc2ccccc2)NC1=O)c1cc(F)cc(F)c1 [X-B1-D3-F + A23] ([Mpa]P[Dap](Benzoyl(3,5-F2))F-Cysteamide; disulfide 1-C)	0.02873
O=C(NC[C@@H]1NC(=O)[C@@H]2CCCN2C(=O)CCSSCCNC(=O)[C@H](Cc2ccccc2)NC1=O)c1ccc(Cl)cc1 [X-B1-D3-F + A25] ([Mpa]P[Dap](Benzoyl(4-Cl))F-Cysteamide; disulfide 1-C)	0.2195
COc1ccc(CC(=O)NC[C@@H]2NC(=O)[C@@H]3CCCN3C(=O)CCSSCCNC(=O)[C@H](Cc3ccccc3)NC2=O)cc1OC [X-B1-D3-F + A37] ([Mpa]P[Dap](X9)F-Cysteamide; disulfide 1-C)	0.02818
O=C(NC[C@@H]1NC(=O)[C@@H]2CCCN2C(=O)CCSSCCNC(=O)[C@H](Cc2ccccc2)NC1=O)c1cccc2c1OC(F)(F)O2 [X-B1-D3-F + A38] ([Mpa]P[Dap](X4)F-Cysteamide; disulfide 1-C)	0.06653
O=C(NC[C@@H]1NC(=O)[C@@H]2CCCN2C(=O)CCSSCCNC(=O)[C@H](Cc2ccccc2)NC1=O)c1cc2cc(Cl)ccc2[nH]1 [X-B1-D3-F + A39] ([Mpa]P[Dap](X5)F-Cysteamide; disulfide 1-C)	0.08617
O=C(Cc1ccncc1)NC[C@@H]1NC(=O)[C@@H]2CCCN2C(=O)CCSSCCNC(=O)[C@H](Cc2ccccc2)NC1=O [X-B1-D3-F + A70] ([Mpa]P[Dap](Acetyl(4-pyridyl))F-Cysteamide; disulfide 1-C)	-0.04156
COc1ccc(C(=O)NC[C@@H]2NC(=O)[C@@H]3CCCN3C(=O)CCSSCCNC(=O)[C@H](Cc3ccccc3)NC2=O)cc1 [X-B1-D3-F + A71] ([Mpa]P[Dap](Benzoyl(4-OMe))F-Cysteamide; disulfide 1-C)	-0.03153
O=C(NC[C@@H]1NC(=O)[C@@H]2CCCN2C(=O)CCSSCCNC(=O)[C@H](Cc2ccccc2)NC1=O)C1=C[C@@H](O)[C@@H](O)[C@H](O)C1 [X-B1-D3-F + A72] ([Mpa]P[Dap](Shikimoyl)F-Cysteamide; disulfide 1-C)	0.06911
O=C(NC[C@@H]1NC(=O)[C@@H]2CCCN2C(=O)CCSSCCNC(=O)[C@H](Cc2ccccc2)NC1=O)c1cc(-c2ccco2)[nH]n1 [X-B1-D3-F + A79] ([Mpa]P[Dap](X10)F-Cysteamide; disulfide 1-C)	0.07009
CC(C)=CCCC(C)CC(=O)NC[C@@H]1NC(=O)[C@@H]2CCCN2C(=O)CCSSCCNC(=O)[C@H](Cc2ccccc2)NC1=O (stereo partly drawn) [X-B1-D3-F + A84] ([Mpa]P[Dap](X7)F-Cysteamide; disulfide 1-C)	0.05085
O=C(NC[C@@H]1NC(=O)[C@@H]2CCCN2C(=O)CCSSCCNC(=O)[C@H](Cc2ccccc2)NC1=O)c1ccc(=O)[nH]n1 [X-B1-D3-F + A86] ([Mpa]P[Dap](X8)F-Cysteamide; disulfide 1-C)	0.01272
O=C(/C=C/c1ccccc1)NC[C@@H]1NC(=O)[C@@H]2CCCN2C(=O)CCSSCCNC(=O)[C@H](Cc2ccccc2)NC1=O [X-B1-D3-F + A91] ([Mpa]P[Dap](X1)F-Cysteamide; disulfide 1-C)	0.08311
O=C1NCCSSCCC(=O)N2CCC[C@H]2C(=O)N[C@@H](CNC(=O)C2(c3ccccc3)CCCCC2)C(=O)N[C@H]1Cc1ccccc1 [X-B1-D3-F + A98] ([Mpa]P[Dap](X14)F-Cysteamide; disulfide 1-C)	0.6432
O=C(NC[C@@H]1NC(=O)[C@@H]2CCCN2C(=O)CCSSCCNC(=O)[C@H](Cc2c[nH]c3ccccc23)NC1=O)c1ccccc1 [X-B1-D3-W + A1] ([Mpa]P[Dap](Bz)W-Cysteamide; disulfide 1-C)	-0.005048
O=C(NC[C@@H]1NC(=O)[C@@H]2CCCN2C(=O)CCSSCCNC(=O)[C@H](Cc2c[nH]c3ccccc23)NC1=O)c1cnccn1 [X-B1-D3-W + A2] ([Mpa]P[Dap](Pyrazinecarbonyl)W-Cysteamide; disulfide 1-C)	0.03807

Further lines, results first:

fraction fluorescent probe displaced	SMILES
0.02548	CC(=O)NC[C@@H]1NC(=O)[C@@H]2CCCN2C(=O)CCSSCCNC(=O)[C@H](Cc2ccccc2)NC1=O [X-B1-D3-F + A7] ([Mpa]P[Dap](Ac)F-Cysteamide; disulfide 1-C)
-0.02974	CC(C)CC(=O)NC[C@@H]1NC(=O)[C@@H]2CCCN2C(=O)CCSSCCNC(=O)[C@H](Cc2ccccc2)NC1=O [X-B1-D3-F + A8] ([Mpa]P[Dap](Isovaleryl)F-Cysteamide; disulfide 1-C)
-0.04895	O=C(NC[C@@H]1NC(=O)[C@@H]2CCCN2C(=O)CCSSCCNC(=O)[C@H](Cc2ccccc2)NC1=O)c1ccco1 [X-B1-D3-F + A16] ([Mpa]P[Dap](2Furoyl)F-Cysteamide; disulfide 1-C)
0.01122	O=C(NC[C@@H]1NC(=O)[C@@H]2CCCN2C(=O)CCSSCCNC(=O)[C@H](Cc2ccccc2)NC1=O)C1CCOCC1 [X-B1-D3-F + A44] ([Mpa]P[Dap](Tetrahydropyran4carbonyl)F-Cysteamide; disulfide 1-C)
0	N#CC1(C(=O)NC[C@@H]2NC(=O)[C@@H]3CCCN3C(=O)CCSSCCNC(=O)[C@H](Cc3ccccc3)NC2=O)CC1 [X-B1-D3-F + A56] ([Mpa]P[Dap](Cyclopropanecarbonyl(1-CN))F-Cysteamide; disulfide 1-C)
-0.1145	CS(=O)(=O)N1CCC(C(=O)NC[C@@H]2NC(=O)[C@@H]3CCCN3C(=O)CCSSCCNC(=O)[C@H](Cc3ccccc3)NC2=O)CC1 [X-B1-D3-F + A57] ([Mpa]P[Dap]([Inp-Ms])F-Cysteamide; disulfide 1-C)
0.03478	O=C(CC1CCCCC1)NC[C@@H]1NC(=O)[C@@H]2CCCN2C(=O)CCSSCCNC(=O)[C@H](Cc2ccccc2)NC1=O [X-B1-D3-F + A66] ([Mpa]P[Dap](Cyclohexylacetyl)F-Cysteamide; disulfide 1-C)
-0.1369	CC(C)CCC(=O)NC[C@@H]1NC(=O)[C@@H]2CCCN2C(=O)CCSSCCNC(=O)[C@H](Cc2ccccc2)NC1=O [X-B1-D3-F + A68] ([Mpa]P[Dap](Pentanoyl(4-Me))F-Cysteamide; disulfide 1-C)
0.03186	O=C(NC[C@@H]1NC(=O)[C@@H]2CCCN2C(=O)CCSSCCNC(=O)[C@H](Cc2ccccc2)NC1=O)C1Cc2ccccc2C1 [X-B1-D3-F + A76] ([Mpa]P[Dap](Indane2carbonyl)F-Cysteamide; disulfide 1-C)
0.05512	COC(=O)CCC(=O)NC[C@@H]1NC(=O)[C@@H]2CCCN2C(=O)CCSSCCNC(=O)[C@H](Cc2ccccc2)NC1=O [X-B1-D3-F + A93] ([Mpa]P[Dap](MeOSuc)F-Cysteamide; disulfide 1-C)
0.09201	CCOCC(=O)NC[C@@H]1NC(=O)[C@@H]2CCCN2C(=O)CCSSCCNC(=O)[C@H](Cc2ccccc2)NC1=O [X-B1-D3-F + A104] ([Mpa]P[Dap](Ethoxyacetyl)F-Cysteamide; disulfide 1-C)
0.01749	NC[C@@H]1NC(=O)[C@@H]2CCCN2C(=O)CCSSCCNC(=O)[C@H](Cc2ccccc2)NC1=O [X-B1-D3-F + No Acid] ([Mpa]P[Dap]F-Cysteamide; disulfide 1-C)
